The results in this text go back to patent US9040502B2, “Anti-XDR-TB drug, anti-MDR-TB drug, and combination anti-tuberculosis drug” (priority 2008, dated 2015).

For the experiment, the system named is Mycobacterium tuberculosis XDR-TB (0306-0206). Format: cell-based. The following applies: ratio method, concentrations as in Table 1.
Turning to `N[C@@H]1CON=C1O` [CS, cycloserine], the “Resistance or sensitivity of M. tuberculosis XDR-TB (0306-0206) to the drug” value (shortened to “Resistance or sensitivity”) is “sensitive”.

Turning to `CC[C@@H](CO)NCCN[C@@H](CC)CO` [EB, ethambutol], the “Resistance or sensitivity” value was “resistant”.

Turning to `NNC(=O)c1ccncc1` [INH, isonicotinic acid hydrazide], the “Resistance or sensitivity” value is listed as “resistant”.

For `Nc1ccc(C(=O)O)c(O)c1` [PAS, para-amino-salicylic acid], the “Resistance or sensitivity” value is “resistant”.

As to `[H]/N=C(/N)N[C@H]1[C@H](O)[C@@H](O)[C@H](O[C@@H]2O[C@@H](C)[C@](O)(C=O)[C@H]2O[C@@H]2O[C@@H](CO)[C@H](O)[C@@H](O)[C@@H]2NC)[C@@H](N/C(N)=N\[H])[C@@H]1O` [SM, streptomycin], the “Resistance or sensitivity” value was “resistant”.

Take `CCc1cc(C(N)=S)ccn1` [TH, ethionamide]: the “Resistance or sensitivity” value was “resistant”.

enviomycin [EVM]: the “Resistance or sensitivity” value was “resistant”.
